Assay results taken from patent US11072635B2, “Macrocyclic broad spectrum antibiotics” (priority 2015, dated 2021).
≈ marks a conversion by molar mass, not a printed value. Like-named read-outs stand apart in the source and are kept apart here.

Key:
Assay type in all cases: cell-based
[1] = tested on: Escherichia coli MC4100 harboring the IMP4213 (E. coli IMP); experiment: microbe, parasite or virus in culture; conditions: 22 h, read-out: MIC (μg/mL) E. coli IMP
Experimental: (§1) In vitro antimicrobial activity of each compound was determined by measuring minimal inhibitor concentrations (MICs) using the broth micro-dilution technique as approved by the Clinical and Laboratory Standards Institute (CLSI) (Methods for Dilution Antimicrobial Susceptibility Tests for Bacteria that Grow Aerobically; Approved Standard—Eighth Edition. CLSI document M07-A8. Wayne, Pa.: Clinical and Laboratory Standards; 2009). Antibacterial activity was measure against three strains of bacteria: a Methicillin Resistant Staphylococcus aureus strain USA 300, NRS384 (S. aureus); a strain of Escherichia coli MC4100 harboring the IMP4213 (E. coli IMP), which results in increased outer-membrane permeability (B Martin and Silhavy T. Imp/OstA is required for cell envelope biogenesis in Escherichia coli. (2002) Molecular Microbiology, 45(5), 1289-1302), and Escherichia coli ATCC 25922 (E. coli), a clinically relevant Gram-negative strain. Cells were inoculated onto plates of Trypyticase Soy Agar or Luria Agar respectively and grown at 35° C. for 20 hours. Inocula suspensions were prepared by scraping cells into 1 mL of testing media (cation adjusted Mueller Hinton Broth supplemented with 0.002% v/v Tween-80) and diluting to a final OD600 nm of 0.01.
(§2) Test compounds were prepared in DMSO at a concentration of 10 mg/mL. […] In protocol 2, the compound stocks were diluted into testing media at a concentration of 4 μg/mL and serial 2-fold dilutions were made in the same media, in 96-well U bottom microtiter dishes, for a total of 10 compound concentrations. In protocol 3, compound stocks were diluted into testing media at a concentration of 0.5 μg/mL, with serial 2-fold dilutions conducted as described above. […] Inocula suspensions were added to the 2-fold serial dilutions of test compounds to a final density of OD OD600 nm of 0.0005 and incubated at 35° C. for 22 hours.

[2] = tested on: Escherichia coli ATCC 25922 (E. coli); experiment: Minimum inhibitory concentration, broth micro-dilution (CLSI); conditions: read-out: MIC (μg/mL) E. coli
Experimental: Cells were inoculated onto plates of Trypyticase Soy Agar or Luria Agar respectively and grown at 35° C. for 20 hours. Inocula suspensions were prepared by scraping cells into 1 mL of testing media (cation adjusted Mueller Hinton Broth supplemented with 0.002% v/v Tween-80) and diluting to a final OD600 nm of 0.01.
as §2

[3] = tested on: Methicillin Resistant Staphylococcus aureus strain USA 300, NRS384 (S. aureus); experiment: as above
Experimental: as §1, §2

[4] = MRSA / NRS 384 / USA300, 22 h, read-out: MIC (μg/mL) S. aureus
[5] = ATCC25922, E. coli ATCC 25922, 35° C., 22 hours
[6] = MRSA / NRS 384 / USA300, MRSA USA 300, NRS384, 35° C., 22 hours, cation adjusted Mueller Hinton Broth with 0.002% Tween-80, read-out: MIC (μg/mL) S. aureus

SMILES | MIC [1] [µg/mL] | MIC ([2]; ATCC25922, 22 h) [µg/mL] | MIC [3, 4] [µg/mL] | MIC [2, 5] [µg/mL] | MIC [3, 6] [µg/mL]
CCCCc1ccc(-c2ccc(C(=O)N[C@@H](CN)C(=O)N(C)[C@@H]3C(=O)N[C@@H](C)C(=O)N[C@H](C(=O)NC(C)=O)Cc4ccc(OCCN)c(c4)-c4cc3ccc4OCCN)cc2)cc1 [Compound 122] | 0.094 (≈ 0.109 µM) | 3 (≈ 3.48 µM) | 1.5 (≈ 1.74 µM) |  | 
C=C(C#N)NC(=O)[C@@H]1Cc2ccc(OCCN)c(c2)-c2cc(ccc2OCCN)[C@H](N(C)C(=O)[C@H](CCCN)NC(=O)c2ccc(-c3ccc(CCCC)cc3)cc2)C(=O)N[C@@H](C)C(=O)N1 [Compound 130] | 0.13 (≈ 0.144 µM) | 6 (≈ 6.67 µM) | 0.38 (≈ 0.422 µM) |  | 
CCCCc1ccc(-c2ccc(C(=O)N[C@@H](CN)C(=O)N(C)[C@@H]3C(=O)N[C@@H](C)C(=O)N[C@H](c4nsc(=O)[nH]4)Cc4ccc(OCCN)c(c4)-c4cc3ccc4OCCN)cc2)cc1 [Compound 132] | 0.25 (≈ 0.285 µM) | 8 (≈ 9.11 µM) | 4 (≈ 4.56 µM) |  | 
CCCCc1ccc(-c2ccc(C(=O)N[C@@H](CCCN)C(=O)N(C)[C@@H]3C(=O)N[C@@H](C)C(=O)N[C@H](c4nccc(=O)[nH]4)Cc4ccc(OCCN)c(c4)-c4cc3ccc4OCCN)cc2)cc1 [Compound 135] | 1.5 (≈ 1.67 µM) | 32 (≈ 35.6 µM) | > 4 |  | 
CCCCc1ccc(-c2ccc(C(=O)N[C@@H](CCCN)C(=O)N(C)[C@@H]3C(=O)N[C@@H](C)C(=O)N[C@H](/C=C/C#N)Cc4ccc(OCCN)c(c4)-c4cc3ccc4OCCN)cc2)cc1 [Compound 138] | 0.5 (≈ 0.583 µM) | 16 (≈ 18.7 µM) | 4 (≈ 4.67 µM) |  | 
C=CC(=O)N(C)NC(=O)[C@@H]1Cc2ccc(OCCN)c(c2)-c2cc(ccc2OCCN)[C@H](N(C)C(=O)[C@H](CCN)NC(=O)c2ccc(CCCC)cc2C)C(=O)N[C@@H](C)C(=O)N1 [Compound 144] | 2 (≈ 2.34 µM) |  |  | 64 (≈ 74.8 µM) | > 4
C[C@@H]1NC(=O)[C@@H](N(C)C(=O)[C@H](CCCCN)NC(=O)c2ccc(-c3ccc(Cl)cc3)cc2)c2ccc(O)c(c2)-c2cc(ccc2O)C[C@@H](C(=O)NN(C)C(=O)CCl)NC1=O [Compound 145] | 4 (≈ 4.65 µM) | > 64 | 2 (≈ 2.32 µM) |  | 
CCCCCCc1ccc(C(=O)N[C@@H](CCN)C(=O)N(C)[C@@H]2C(=O)N[C@@H](C)C(=O)N[C@H](C(=O)O)Cc3ccc(O)c(c3)-c3cc2ccc3O)c(C)c1 [Compound 146] | 0.75 (≈ 1.05 µM) | > 64 | > 4 |  | 
CCCCCCCc1ccc(C(=O)N[C@@H](CCN)C(=O)N(C)[C@@H]2C(=O)N[C@@H](C)C(=O)N[C@H](C(=O)N[C@@H](C)C(=O)Oc3ccccc3)Cc3ccc(OCCN)c(c3)-c3cc2ccc3OCCN)c(C)c1 [Compound 148] |  |  |  | 15.8 (≈ 16.5 µM) | 0.5 (≈ 0.519 µM)
CCCCCCCc1ccc(C(=O)N[C@@H](CCN)C(=O)N(C)[C@@H]2C(=O)N[C@@H](C)C(=O)N[C@H](C(=O)N[C@@H](C)C(=O)NOC(N)=O)Cc3ccc(OCCN)c(c3)-c3cc2ccc3OCCN)c(C)c1 [Compound 149] |  |  |  | 16.1 (≈ 17.1 µM) | 0.25 (≈ 0.265 µM)
CCCCCCCc1ccc(C(=O)N[C@@H](CCN)C(=O)N(C)[C@@H]2C(=O)N[C@@H](C3CC3)C(=O)N[C@H](C(=O)N[C@@H](C)C(C)=O)Cc3ccc(OCCN)c(c3)-c3cc2ccc3OCCN)c(C)c1 [Compound 150] |  |  |  | 4.39 (≈ 4.82 µM) | 0.068 (≈ 0.0746 µM)
